Tests used:
Assay in all cases: High-throughput screening, Ub-RhoMP, single dose 1.25 µM
Format in all cases: biochemical
OTUB2 = target: T1, OTUB2 (Homo sapiens, UniProt Q96DC9); design: (1-234); His6 (cleaved yes); made in house; details: individual amine building block (plate NCN-5); read-out: BB %inhibition OTUB2
T1 sequence (Q96DC9 1-234): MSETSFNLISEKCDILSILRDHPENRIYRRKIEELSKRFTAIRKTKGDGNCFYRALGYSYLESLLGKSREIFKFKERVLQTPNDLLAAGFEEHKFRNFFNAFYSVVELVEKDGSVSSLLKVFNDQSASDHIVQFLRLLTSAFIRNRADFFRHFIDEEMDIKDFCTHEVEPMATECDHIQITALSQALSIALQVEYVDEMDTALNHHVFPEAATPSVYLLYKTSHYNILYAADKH
Experimental: (§1) Since the in‐plate synthesis was conducted in 1536‐well Echo plates, the compounds could readily be transferred from these plates into 1536‐well assay plates using acoustic liquid dispensing (Figure 2a) and subjected to HTS. We screened the whole 7536 compound library against a panel of twelve enzymes, including three DUBs from the UCH family, two DUBs from the OTU family, five DUBs from the USP family, plus ISG15 protease USP18, and SUMO protease SENP1. Each compound was tested at a single dose of 1.25 µM, assuming full conversion (10 mM in DMSO of the formed products) during the in‐plate synthesis, using the fluorogenic assay described above. […] The compounds are sorted by the amine building blocks (BB1‐16), and within each BB, sorted by carboxylic acid (CA1‐471), thereby providing a comprehensive and systematic overview of the overall inhibition by each BB and CA combination. Some interesting patterns can be obtained from this map. […] Indeed, BB10 is the privileged scaffold for UCHL1 as it originates from UCHL1 inhibitor 5 (Figure 1). […] On the other hand, OTUD1 and USP32 show a much higher hit rate, and this is even more pronounced for USP30 and ISG15 protease mUSP18, each showing many active compounds distributed over several BB's.
(§2) Purified recombinant enzymes used in this study
(§3) High-throughput screening
(§4) The screens were performed at room temperature in “flat bottom, non-treated, black […]
(§5) µM. The compounds (10 nL each) were transferred from the 1 mM daughter plates to the […]
(§6) Four wells containing DMSO
(§7) (10 nL) and four wells containing NEM (10 mM final concentration) were used in each plate […]
(§8) solution (1.33x final concentration) was added to each well, followed by incubation for 30 min.
(§9) Next, 2 µL of a substrate solution (4x final concentration) was added to each well (Ub-RhoMP[2]
(§10) After 1h or 2h incubation the
(§11) The percentage inhibition was calculated for each well using the […]
(§12) Where FIx is the fluorescence intensity of each well, FIpos is the average fluorescence intensity of the positive (NEM) control wells, and FIneg is the average fluorescence intensity of the negative (DMSO) control wells.

USP32 = target: T2, USP32 (Homo sapiens, UniProt Q8NFA0); details: for inhibition at 1.25 µM: individual amine building block (plate NCN-5), read-out: BB %inhibition USP32; for %inhibition USP32: crude in-plate synthesized compound, 1.25 µM assuming full conversion
T2 construct: (1-1604); His-tag (N); made in house
T2 sequence (Q8NFA0 whole entry): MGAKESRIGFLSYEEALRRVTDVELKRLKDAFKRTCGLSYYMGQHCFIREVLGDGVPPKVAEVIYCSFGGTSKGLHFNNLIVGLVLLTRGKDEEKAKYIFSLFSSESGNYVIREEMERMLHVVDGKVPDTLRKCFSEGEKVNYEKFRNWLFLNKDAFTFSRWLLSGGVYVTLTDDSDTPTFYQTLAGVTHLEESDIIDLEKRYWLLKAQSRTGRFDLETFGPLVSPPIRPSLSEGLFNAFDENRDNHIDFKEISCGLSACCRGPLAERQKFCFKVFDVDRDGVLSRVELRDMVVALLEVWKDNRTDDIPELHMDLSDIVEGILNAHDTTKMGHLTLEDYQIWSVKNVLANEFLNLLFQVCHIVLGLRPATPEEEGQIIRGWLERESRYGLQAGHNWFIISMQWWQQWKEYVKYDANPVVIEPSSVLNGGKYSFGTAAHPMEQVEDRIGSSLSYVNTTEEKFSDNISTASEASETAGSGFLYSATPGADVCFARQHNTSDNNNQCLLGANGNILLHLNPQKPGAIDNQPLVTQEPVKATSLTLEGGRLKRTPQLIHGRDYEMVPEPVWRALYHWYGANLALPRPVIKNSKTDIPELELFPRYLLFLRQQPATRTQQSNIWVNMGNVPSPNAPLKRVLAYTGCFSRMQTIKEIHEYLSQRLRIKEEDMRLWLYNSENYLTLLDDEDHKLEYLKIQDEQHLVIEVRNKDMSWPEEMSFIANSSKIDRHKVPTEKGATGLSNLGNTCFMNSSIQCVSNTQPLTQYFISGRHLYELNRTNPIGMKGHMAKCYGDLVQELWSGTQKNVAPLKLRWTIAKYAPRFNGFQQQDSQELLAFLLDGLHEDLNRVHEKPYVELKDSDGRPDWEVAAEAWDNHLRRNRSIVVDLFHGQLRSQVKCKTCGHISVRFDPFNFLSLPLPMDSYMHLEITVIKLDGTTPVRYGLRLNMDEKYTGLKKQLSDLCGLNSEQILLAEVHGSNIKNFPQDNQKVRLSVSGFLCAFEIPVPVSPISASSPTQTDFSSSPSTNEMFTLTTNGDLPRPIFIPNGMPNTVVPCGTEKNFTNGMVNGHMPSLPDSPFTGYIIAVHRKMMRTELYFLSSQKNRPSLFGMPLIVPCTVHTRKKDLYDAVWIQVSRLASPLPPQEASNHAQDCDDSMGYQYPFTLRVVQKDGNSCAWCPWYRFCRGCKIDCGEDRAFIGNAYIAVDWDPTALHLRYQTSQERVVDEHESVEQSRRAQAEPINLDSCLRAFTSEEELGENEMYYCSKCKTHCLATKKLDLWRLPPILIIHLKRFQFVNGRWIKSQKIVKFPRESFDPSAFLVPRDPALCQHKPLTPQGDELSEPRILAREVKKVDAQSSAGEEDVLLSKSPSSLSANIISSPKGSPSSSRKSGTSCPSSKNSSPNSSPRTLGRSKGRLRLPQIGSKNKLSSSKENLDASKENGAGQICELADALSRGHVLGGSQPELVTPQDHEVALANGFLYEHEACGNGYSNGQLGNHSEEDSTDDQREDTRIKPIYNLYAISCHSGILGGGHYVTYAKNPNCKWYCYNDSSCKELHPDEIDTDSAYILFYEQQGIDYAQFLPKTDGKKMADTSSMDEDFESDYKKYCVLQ
Experimental: as §1, §2, §3, §4, §5, §6, §7, §8, §9, §10, §11, §12

USP8 = target: T3, USP8 (Homo sapiens, UniProt P40818); details: for BB %inhibition USP8: individual amine building block (plate NCN-5); for %inhibition USP8: crude in-plate synthesized compound, 1.25 µM assuming full conversion
T3 construct: (1-1118); purchased Ubiquigent 64-0053-050
T3 sequence (P40818 1-1118): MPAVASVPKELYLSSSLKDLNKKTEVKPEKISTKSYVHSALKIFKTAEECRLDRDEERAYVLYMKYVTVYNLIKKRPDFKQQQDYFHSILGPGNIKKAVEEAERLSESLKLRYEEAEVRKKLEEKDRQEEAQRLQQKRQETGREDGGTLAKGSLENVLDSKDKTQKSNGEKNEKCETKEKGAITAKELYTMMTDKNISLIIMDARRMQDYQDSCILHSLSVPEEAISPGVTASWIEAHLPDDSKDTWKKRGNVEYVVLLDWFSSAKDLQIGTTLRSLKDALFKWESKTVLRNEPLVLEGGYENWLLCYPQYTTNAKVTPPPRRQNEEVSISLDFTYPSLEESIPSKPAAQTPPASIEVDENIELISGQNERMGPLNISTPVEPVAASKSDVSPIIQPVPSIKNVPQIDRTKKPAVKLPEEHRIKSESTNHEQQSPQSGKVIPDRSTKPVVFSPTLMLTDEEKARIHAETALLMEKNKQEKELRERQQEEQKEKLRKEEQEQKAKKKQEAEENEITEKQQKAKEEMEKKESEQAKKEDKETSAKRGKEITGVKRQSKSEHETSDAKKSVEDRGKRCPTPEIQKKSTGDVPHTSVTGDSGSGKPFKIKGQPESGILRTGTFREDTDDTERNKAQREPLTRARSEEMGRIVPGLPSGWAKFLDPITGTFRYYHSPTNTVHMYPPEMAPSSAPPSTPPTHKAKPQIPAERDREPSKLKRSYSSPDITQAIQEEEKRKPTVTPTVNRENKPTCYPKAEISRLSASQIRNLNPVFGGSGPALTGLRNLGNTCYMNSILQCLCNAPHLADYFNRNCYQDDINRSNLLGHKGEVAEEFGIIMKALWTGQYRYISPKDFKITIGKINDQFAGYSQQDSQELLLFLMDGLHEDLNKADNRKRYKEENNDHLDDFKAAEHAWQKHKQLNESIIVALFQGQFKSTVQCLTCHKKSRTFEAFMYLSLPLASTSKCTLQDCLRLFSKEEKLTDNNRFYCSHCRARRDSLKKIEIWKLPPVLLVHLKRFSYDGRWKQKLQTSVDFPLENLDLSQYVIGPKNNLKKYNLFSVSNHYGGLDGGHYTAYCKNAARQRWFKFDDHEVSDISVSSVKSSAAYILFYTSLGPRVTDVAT
Experimental: as §1, §2, §3, §4, §5, §6, §7, §8, §9, §10, §11, §12

USP24 = target: T4, USP24 (Homo sapiens, UniProt Q9UPU5); details: for inhibition at 1.25 µM: individual amine building block (plate NCN-5), read-out: BB %inhibition USP24; for %inhibition USP24: crude in-plate synthesized compound, 1.25 µM assuming full conversion
T4 construct: (1-2620); His10; purchased Biotechne E-616
T4 sequence (Q9UPU5 whole entry): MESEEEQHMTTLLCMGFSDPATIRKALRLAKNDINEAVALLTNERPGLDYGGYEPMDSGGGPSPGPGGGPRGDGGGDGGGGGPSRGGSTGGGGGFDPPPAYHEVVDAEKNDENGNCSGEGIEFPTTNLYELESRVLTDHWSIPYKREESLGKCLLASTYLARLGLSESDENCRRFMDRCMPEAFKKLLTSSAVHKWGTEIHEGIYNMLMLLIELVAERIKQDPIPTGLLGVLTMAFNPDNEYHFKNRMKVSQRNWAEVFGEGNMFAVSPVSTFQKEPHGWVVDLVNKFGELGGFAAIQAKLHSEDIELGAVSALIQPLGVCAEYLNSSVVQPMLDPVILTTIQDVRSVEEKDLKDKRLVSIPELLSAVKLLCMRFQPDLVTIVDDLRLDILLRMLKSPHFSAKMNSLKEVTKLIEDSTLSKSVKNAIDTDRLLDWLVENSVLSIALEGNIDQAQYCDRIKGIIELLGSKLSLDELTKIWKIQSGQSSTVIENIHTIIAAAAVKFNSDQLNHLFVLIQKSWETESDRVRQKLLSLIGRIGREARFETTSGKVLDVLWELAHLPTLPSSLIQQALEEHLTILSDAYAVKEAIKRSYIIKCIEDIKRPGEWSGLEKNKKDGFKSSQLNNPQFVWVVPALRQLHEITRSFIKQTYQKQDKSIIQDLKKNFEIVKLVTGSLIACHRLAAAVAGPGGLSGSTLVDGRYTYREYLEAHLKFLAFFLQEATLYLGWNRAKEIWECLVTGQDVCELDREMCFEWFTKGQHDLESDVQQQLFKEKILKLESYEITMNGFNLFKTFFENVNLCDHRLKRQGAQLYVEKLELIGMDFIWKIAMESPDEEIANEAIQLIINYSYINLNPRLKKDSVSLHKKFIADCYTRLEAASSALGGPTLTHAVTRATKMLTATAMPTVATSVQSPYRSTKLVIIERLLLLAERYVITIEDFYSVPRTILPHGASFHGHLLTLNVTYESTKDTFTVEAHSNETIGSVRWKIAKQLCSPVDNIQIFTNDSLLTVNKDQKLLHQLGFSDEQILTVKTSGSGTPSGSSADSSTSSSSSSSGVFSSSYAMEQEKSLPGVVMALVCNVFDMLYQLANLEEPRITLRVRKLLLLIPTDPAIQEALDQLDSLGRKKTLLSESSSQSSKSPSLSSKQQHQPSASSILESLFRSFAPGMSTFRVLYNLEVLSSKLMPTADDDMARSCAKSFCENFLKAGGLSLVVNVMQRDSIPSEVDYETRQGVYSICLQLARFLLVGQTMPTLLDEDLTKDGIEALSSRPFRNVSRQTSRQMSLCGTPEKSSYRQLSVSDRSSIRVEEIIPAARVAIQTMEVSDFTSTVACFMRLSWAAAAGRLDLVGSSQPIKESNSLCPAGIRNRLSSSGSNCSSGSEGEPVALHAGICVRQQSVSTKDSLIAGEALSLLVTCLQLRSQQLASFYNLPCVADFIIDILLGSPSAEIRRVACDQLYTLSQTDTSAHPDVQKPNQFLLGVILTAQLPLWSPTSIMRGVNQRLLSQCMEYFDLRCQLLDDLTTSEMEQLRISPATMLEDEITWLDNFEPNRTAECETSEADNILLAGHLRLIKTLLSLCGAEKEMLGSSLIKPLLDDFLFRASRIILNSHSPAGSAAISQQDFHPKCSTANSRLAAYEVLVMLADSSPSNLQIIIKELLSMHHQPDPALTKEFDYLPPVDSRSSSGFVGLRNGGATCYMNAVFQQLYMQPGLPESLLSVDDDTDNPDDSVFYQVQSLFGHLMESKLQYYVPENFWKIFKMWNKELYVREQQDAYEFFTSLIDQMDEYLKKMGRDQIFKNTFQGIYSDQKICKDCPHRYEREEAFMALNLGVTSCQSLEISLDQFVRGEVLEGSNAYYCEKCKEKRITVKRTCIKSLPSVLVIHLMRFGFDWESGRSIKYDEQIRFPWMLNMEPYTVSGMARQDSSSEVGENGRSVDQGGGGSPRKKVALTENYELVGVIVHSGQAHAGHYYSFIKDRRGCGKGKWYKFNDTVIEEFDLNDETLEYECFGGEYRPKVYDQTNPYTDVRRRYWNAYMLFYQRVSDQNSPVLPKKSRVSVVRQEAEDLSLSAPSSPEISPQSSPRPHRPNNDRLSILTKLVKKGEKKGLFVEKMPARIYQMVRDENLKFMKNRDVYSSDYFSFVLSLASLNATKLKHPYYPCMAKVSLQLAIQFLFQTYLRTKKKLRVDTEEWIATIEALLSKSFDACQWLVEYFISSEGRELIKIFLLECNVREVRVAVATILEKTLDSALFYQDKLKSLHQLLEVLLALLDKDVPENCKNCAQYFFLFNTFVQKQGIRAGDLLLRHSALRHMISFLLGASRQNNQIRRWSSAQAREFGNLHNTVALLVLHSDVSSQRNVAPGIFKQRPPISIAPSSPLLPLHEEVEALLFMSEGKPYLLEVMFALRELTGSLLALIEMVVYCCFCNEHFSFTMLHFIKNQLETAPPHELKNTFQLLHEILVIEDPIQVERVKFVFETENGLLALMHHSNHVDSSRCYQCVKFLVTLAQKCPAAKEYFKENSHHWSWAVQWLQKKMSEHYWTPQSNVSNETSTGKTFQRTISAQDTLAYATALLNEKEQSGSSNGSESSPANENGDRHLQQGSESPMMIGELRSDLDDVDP
Experimental: as §1, §2, §3, §4, §5, §6, §7, §8, §9, §10, §11, §12

UCHL5 = target: T5, UCHL5 (Homo sapiens, UniProt Q9Y5K5); details: for inhibition at 1.25 µM: individual amine building block (plate NCN-5), read-out: BB %inhibition UCHL5; for %inhibition UCHL5: crude in-plate synthesized compound, 1.25 µM assuming full conversion
T5 construct: (1-329); purchased Novus biochemicals NBP1-72315
T5 sequence (Q9Y5K5 1-329): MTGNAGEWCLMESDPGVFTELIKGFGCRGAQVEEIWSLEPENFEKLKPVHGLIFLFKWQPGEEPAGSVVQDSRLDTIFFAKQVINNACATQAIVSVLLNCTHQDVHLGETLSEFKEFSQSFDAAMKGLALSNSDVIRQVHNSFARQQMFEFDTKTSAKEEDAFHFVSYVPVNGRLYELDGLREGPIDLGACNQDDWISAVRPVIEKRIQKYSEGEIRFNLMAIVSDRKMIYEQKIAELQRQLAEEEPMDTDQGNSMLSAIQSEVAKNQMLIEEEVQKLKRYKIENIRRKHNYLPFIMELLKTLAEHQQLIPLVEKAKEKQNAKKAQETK
Experimental: as §1, §2, §3, §4, §5, §6, §7, §8, §9, §10, §11, §12

Row | Compound | inhibition at 1.25 µM (OTUB2) | inhibition at 1.25 µM (USP32) | BB %inhibition USP8 (USP8) | inhibition at 1.25 µM (USP24) | inhibition at 1.25 µM (UCHL5) | %inhibition USP32 (USP32) | %inhibition USP8 (USP8) | %inhibition USP24 (USP24) | %inhibition UCHL5 (UCHL5)
1 | N#CN1CCC2(CCNC2)C1 (stereo not shown) [BB14] | 6.4% | 0.344% | 7.8% | 3.8% | -1.4% | – | – | – | –
2 | N#CN1CC[C@@H](NC(=O)c2ncoc2-c2cccs2)C1 [BB01CA94] | – | – | – | – | – | 15.3% | 24.1% | -1.8% | 4.4%
3 | N#CN1CC[C@@H](NC(=O)Cc2csc(-c3cnccn3)n2)C1 [BB01CA92] | – | – | – | – | – | 21.1% | 32.5% | 3.2% | 6.2%
4 | N#CN1C[C@@H]2C[C@H]1CN2 [BB12] | -6% | -1.2% | -2.5% | -3.7% | -5.3% | – | – | – | –
5 | N#CN1CC[C@@H](NC(=O)CCN(Cc2ccccc2)S(=O)(=O)c2c(Cl)cccc2Cl)C1 [BB01CA93] | – | – | – | – | – | 75.0% | 33.0% | 9.1% | 5.2%
6 | N#CN1CC[C@@H](NC(=O)c2nc(N3CCCC3)ncc2Cl)C1 [BB01CA90] | – | – | – | – | – | 19.4% | 29.2% | 0.9% | 6.9%
7 | N#CN1CC[C@@H](NC(=O)C(Cc2c[nH]cn2)NS(=O)(=O)c2ccc(Cl)cc2)C1 (stereo partly shown) [BB01CA91] | – | – | – | – | – | 22.5% | 28.4% | -0.9% | 8.4%
8 | N#CN1CCC(N)CC1 [BB2] | 0.9% | 9% | 1.0% | 5.5% | -3.3% | – | – | – | –
9 | N#CN1CC[C@@H](N)C1 [BB1] | 3.3% | 9.5% | 9.1% | 6.1% | -4.7% | – | – | – | –
10 | N#CN1CC[C@H](C(=O)Nc2nc3c(s2)CNCC3)C1 [BB10] | -5.1% | 1.5% | 0.105% | -1.8% | -11% | – | – | – | –

The remaining lines, values ahead:

Row | inhibition at 1.25 µM (OTUB2) | inhibition at 1.25 µM (USP32) | BB %inhibition USP8 (USP8) | inhibition at 1.25 µM (USP24) | inhibition at 1.25 µM (UCHL5) | %inhibition USP32 (USP32) | %inhibition USP8 (USP8) | %inhibition USP24 (USP24) | %inhibition UCHL5 (UCHL5) | Compound
11 | 5.6% | 1.1% | 0.0% | 5.7% | 0.225% | – | – | – | – | N#CN1C[C@H](N)[C@@H](O)C1 [BB13]
12 | -3.8% | 2.8% | -1.7% | -3.9% | -1.4% | – | – | – | – | N#CN1C[C@H]2C[C@H](N)C[C@H]2C1 [BB7]
13 | -1.5% | 6% | -1.3% | 3.1% | 2.5% | – | – | – | – | N#CN1C[C@H]2C[C@@H](N)C[C@H]2C1 [BB6]
14 | -2% | 2.8% | 20.0% | 0.33% | -9.9% | – | – | – | – | N#CN1CC[C@@H](NC(=O)c2ccc(CN)cc2)C1 [BB9]
15 | 0.0345% | -6.1% | -3.5% | 9.2% | -7.7% | – | – | – | – | N#CN1CCC(n2cc(N)cn2)CC1 [BB16]
16 | -0.269% | -3.1% | 2.7% | 5.6% | -6% | – | – | – | – | N#CN1C[C@@H](F)[C@@H](N)C1 [BB15]
17 | -1.3% | 1.3% | 1.5% | -0.279% | 4.6% | – | – | – | – | N#CN1CCC[C@H](N)C1 [BB8]
18 | -6.8% | -1.5% | -2.4% | -6.5% | -7.1% | – | – | – | – | N#CN1CC[C@H](CN)C1 [BB11]
19 | 0.556% | 8.4% | 3.6% | -1.4% | -5.8% | – | – | – | – | N#CN1CC[C@H](N)C1 [BB3]
20 | -1.4% | 5.3% | 1.7% | 5% | 2.9% | – | – | – | – | N#CN1CC(N)C1 [BB5]
21 | 2.7% | 4.7% | 5.3% | 0.8% | -6.7% | – | – | – | – | N#CN1CCC[C@@H](N)C1 [BB4]
